Results: patent US10995068B2, “Synthetic sphingolipid-like molecules, drugs, methods of their synthesis and methods of treatment” (The Regents of the University of California, priority 2015, dated 2021)

Experiments:
[1] = Blood cell count of pDKO mice; type: in vivo; settings: for % lymphocyte / % neutrophil / Red Blood Cells / White Blood Cells / Hematocrit: pDKO mice, at sacrifice; for White Blood Cells: Means ± SEM, n = 4; for Hematocrit: in % (unit assumed)
Protocol: In vivo studies. Experiments conducted in mice were performed in accordance with the Institutional Animal Care and Use Committee of University of California, Irvine following a power analysis conducted in consultation with the Biostatistics Shared Resource of Chao Family Comprehensive Cancer Center at UCI. Xenografts were produced by injecting 5 million cells subcutaneously in the flank of 10-16 week-old male or female NSG mice. Prostate isografts were produced in the same manner but in male 6-8 wk old C57BL/6 mice. Once tumors reached 100 mm^3, SH-BC-893 was administered by intraperitoneal (i.p.) injection or oral gavage as indicated. Tumor volume was calculated using the formula, volume (mm^3)=length [mm]×(width [mm])^2×0.52; BLI was measured using an IVIS imaging system (Xenogen). To generate pDKO mice on the C57BL6 background, Pten^flox mice (stock No. 0045597) and p53^flox mice (stock No. 008462) were obtained from the Jackson Laboratory and PB-Cre4 mice (strain #01XF5) were obtained from the NCI-Frederick Mouse Repository. Age-matched cohorts of pDKO males were generated by in vitro fertilization executed with the assistance of the Transgenic Mouse Facility at UC Irvine. Treatment was begun at 6-7 wks of age. […] Tumor samples were processed and imaged by the Pathology Research Services Core Facility at UC Irvine. Blood chemistry was analyzed by IDEXX BioResearch and complete blood counts were performed using a Hemavet hematology system.

4F2hc, ASCT2, GLUT1 = assay: Nutrient transporter internalization; type: cell-based; settings: CD147 not affected
Description: As a proof of principle concerning the ability of C-aryl azacyclic constrained sphingolipid-like compounds, compound SH-BC-893 was examined thoroughly in a series of exemplary embodiment experiments. (The chemical structure of SH-BC-893, also referred to in the in this application as compound 5 and compound 104, and of FTY720 are shown in FIG. 51A). Results are provided below, along with a number of correlated data tables and graphs (Tables 7 and 8 and FIGS. 51-67). In embodiments, SH-BC-893 induces nutrient transporter loss and mimics starvation without the S1P receptor associated toxicity of FTY720. SH-BC-893 lacks the sphingosine-1-phosphate (S1P) receptor activity that prevents the use of FTY720 in cancer patients (FIG. 51B). […]
Light Microscopy: Brightfield and epifluorescence microscopy were conducted using a Nikon TE2000-S fluorescence microscope; confocal microscopy was performed on a Zeiss LSM780 confocal microscope or Nikon Eclipse Ti spinning disk confocal microscope. […] Co-localization was determined using JACoP plugin in ImageJ software. Macropinocytosis was measured after 16 h incubation in serum-free DMEM. p53−/−; LSL-K-RasG12D MEFs before (LSL) or after (KRasG12D) introduction of Cre were serum starved for 16 h and then treated with macropinocytosis inhibitor 5-(N-ethyl-N-isopropyl) amiloride (EIPA, 75 μM) for 1 h or SH-BC-893 for 6 h. […]

PIKfyve = biological target: T1, PIKfyve (Homo sapiens, UniProt Q9Y2I7); assay: PIKfyve in vitro kinase assay; type: biochemical; settings: FLAG-PIKfyve
T1 construct: made in house; host or cells: HEK293T cells
T1 sequence (Q9Y2I7 whole entry, species assumed): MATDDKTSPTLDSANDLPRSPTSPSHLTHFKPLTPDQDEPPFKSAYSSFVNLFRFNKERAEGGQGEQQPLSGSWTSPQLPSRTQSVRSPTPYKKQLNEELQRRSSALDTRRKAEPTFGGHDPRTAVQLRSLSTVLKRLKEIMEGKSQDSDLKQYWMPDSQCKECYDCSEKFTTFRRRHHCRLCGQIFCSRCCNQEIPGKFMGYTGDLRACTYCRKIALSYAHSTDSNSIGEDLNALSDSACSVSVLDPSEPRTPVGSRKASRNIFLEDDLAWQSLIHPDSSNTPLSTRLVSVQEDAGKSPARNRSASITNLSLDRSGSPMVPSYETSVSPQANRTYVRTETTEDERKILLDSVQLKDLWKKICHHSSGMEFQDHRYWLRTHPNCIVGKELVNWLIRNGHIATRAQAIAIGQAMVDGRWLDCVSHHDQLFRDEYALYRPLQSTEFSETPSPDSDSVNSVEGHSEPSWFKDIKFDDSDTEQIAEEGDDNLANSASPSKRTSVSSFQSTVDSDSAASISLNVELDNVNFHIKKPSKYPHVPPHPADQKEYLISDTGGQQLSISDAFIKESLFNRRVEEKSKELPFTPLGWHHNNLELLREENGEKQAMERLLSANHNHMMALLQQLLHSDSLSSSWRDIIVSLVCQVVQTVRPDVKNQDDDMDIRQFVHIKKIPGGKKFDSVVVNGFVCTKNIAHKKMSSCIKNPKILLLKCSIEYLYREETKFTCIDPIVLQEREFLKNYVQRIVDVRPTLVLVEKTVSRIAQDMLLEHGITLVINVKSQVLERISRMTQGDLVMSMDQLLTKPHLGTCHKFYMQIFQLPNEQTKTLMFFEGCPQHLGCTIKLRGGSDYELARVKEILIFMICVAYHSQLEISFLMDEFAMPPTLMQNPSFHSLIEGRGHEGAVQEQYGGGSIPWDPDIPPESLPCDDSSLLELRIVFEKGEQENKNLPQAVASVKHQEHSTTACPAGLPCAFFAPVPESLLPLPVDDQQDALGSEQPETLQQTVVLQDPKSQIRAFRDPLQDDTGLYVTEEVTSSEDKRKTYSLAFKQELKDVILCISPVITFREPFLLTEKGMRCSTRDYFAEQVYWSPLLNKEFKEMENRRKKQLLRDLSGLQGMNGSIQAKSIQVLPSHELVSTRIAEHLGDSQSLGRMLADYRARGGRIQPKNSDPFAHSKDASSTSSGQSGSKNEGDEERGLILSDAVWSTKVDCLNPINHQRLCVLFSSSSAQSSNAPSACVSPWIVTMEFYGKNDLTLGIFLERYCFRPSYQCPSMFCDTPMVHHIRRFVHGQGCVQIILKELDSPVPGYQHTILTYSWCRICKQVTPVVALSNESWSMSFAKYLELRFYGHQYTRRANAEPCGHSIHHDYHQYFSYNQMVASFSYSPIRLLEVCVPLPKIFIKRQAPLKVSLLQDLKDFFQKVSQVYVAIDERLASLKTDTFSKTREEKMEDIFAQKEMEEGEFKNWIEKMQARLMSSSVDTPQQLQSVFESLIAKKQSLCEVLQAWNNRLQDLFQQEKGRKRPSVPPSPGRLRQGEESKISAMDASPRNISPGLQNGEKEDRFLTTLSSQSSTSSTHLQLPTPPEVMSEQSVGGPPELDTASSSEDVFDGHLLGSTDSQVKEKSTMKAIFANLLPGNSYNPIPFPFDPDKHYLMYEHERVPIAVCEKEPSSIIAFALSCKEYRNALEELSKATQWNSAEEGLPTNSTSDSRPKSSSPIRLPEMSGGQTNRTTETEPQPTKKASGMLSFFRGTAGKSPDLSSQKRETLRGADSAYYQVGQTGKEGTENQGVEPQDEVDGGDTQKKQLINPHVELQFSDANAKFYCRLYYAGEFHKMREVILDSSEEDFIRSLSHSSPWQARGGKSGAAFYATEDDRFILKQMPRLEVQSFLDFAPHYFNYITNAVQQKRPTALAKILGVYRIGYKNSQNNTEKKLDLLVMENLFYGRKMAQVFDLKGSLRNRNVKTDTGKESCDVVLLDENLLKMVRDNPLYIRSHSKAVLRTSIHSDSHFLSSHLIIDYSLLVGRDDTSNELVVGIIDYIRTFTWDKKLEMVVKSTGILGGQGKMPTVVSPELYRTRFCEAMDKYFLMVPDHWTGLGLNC
Description: In certain embodiments of the invention, sphingolipid-like molecules mis-localize PIKfyve preventing its association with TRMPL1 and inducing vacuolation, instead of inhibiting PIKfyve kinase activity. While PIKfyve localized to the limiting membrane of YM201636-induced vacuoles as expected, PIKfyve was present in clumps between vacuoles in FTY720-treated cells (FIGS. 57C and 56F).
PIKfyve in vitro kinase assay. FLAG-PIKfyve was expressed in HEK293T cells, purified with FLAG-beads, and eluted with FLAG peptides. PI3P and phosphatidylserine (C16) liposomes were generated by sonication in 2× lipid mixture buffer [40 mM Tris-HCl (pH 7.4), 200 mM NaCl, 1 mM EGTA] with or without FTY720. FLAG-PIKfyve and lipid mixtures were incubated with Mg^2+-ATP solution [6.5 mM HEPES (pH 7.3), 2.5 mM MnCl2, 10 mM MgCl2, 1 mM β-glycerophosphate, 0.1 mM ATP and [^32P]-γ-ATP] for 15 min at RT. The reaction was stopped by adding 4 M HCl, and phosphoinositides were extracted with methanol/chloroform (1:1). Phosphoinositides were spotted on silica thin-layer chromatography plates and separated with 2 M acetic acid/1-propanol (35:65). Membranes were dried, exposed to a Phospho Imager, and the counts from PI(3,5)P2 spots quantified with ImageQuant.

Row | Compound | complete blood counts (in words) ([1]; mice treated with 120 mg/kg for 11 weeks) | % lymphocyte ([1]; 60 mg/kg) | % neutrophil ([1]; 60 mg/kg) | Red Blood Cells ([1]; 60 mg/kg) | White Blood Cells ([1]; 60 mg/kg) | Hematocrit ([1]; 60 mg/kg) | % lymphocyte ([1]; 120 mg/kg) | % neutrophil ([1]; 120 mg/kg) | Red Blood Cells ([1]; 120 mg/kg) | White Blood Cells ([1]; 120 mg/kg) | Hematocrit ([1]; 120 mg/kg) | internalization of amino acid and glucose transporters (4F2hc, ASCT2, GLUT1) (4F2hc, ASCT2, GLUT1) | PIKfyve kinase activity (PIKfyve)
1 | CCCCCCCCc1ccc([C@H]2CCN[C@@H]2CO)cc1.Cl [Compound 5, (2S,3R)-2-(hydroxymethyl)-3-(4-octylphenyl)Pyrrolidinium chloride] | normal complete blood counts | 77 ± 4% | 14 ± 3% | 8 ± 1 M/μL | 5 ± 1 10^3 cells/μL | 32 ± 5 | 73 ± 5% | 19 ± 5% | 9 ± 1 M/μL | 8 ± 1 10^3 cells/μL | 41 ± 3 | triggers the selective internalization | –
2 | CCCCCCCCc1ccc(CCC(N)(CO)CO)cc1.Cl [FTY720, 2-Amino-2-[2-(4-octylphenyl)ethyl]propane 1,3-diol hydrochloride, reference compound] | – | – | – | – | – | – | – | – | – | – | – | – | did not inhibit PIKfyve kinase activity
